Where two headings read alike, the source gives them in different places.
What was measured:
[1] = host hepatocyte viability in the P. cynomolgi assay; assay type: cell-based, rhesus; conditions: rhesus monkey; radical cure mode; read-out: cytotoxicity CC50
Description: The liver-stage P. cynomolgi assay was designed to identify anti-hypnozoite drugs utilizing a 384-well in vitro culture system[31],[37]. Briefly, cryopreserved primary simian hepatocytes (donor lots XGB, OQB, and QHO: BioIVT, Inc.) were seeded in collagen-coated 384-well plates and infected with P. cynomolgi bastianellii (B strain) sporozoites dissected from infected Anopheles dirus mosquitoes. Test compounds were solubilized in 100% DMSO and serially diluted 2-fold to generate up to a 12-point dose-response curve, maintaining a final DMSO concentration of 0.1% across all wells. Two distinct treatment modes were evaluated. For the prophylactic assay, to assess the prevention of infection, compound exposure began 1-hour post-infection with daily media changes on Days 1 and 2. For the radical cure assay, to assess activity against established liver forms, drugs were administered daily from Day 4 through Day 7 post-infection. […] For readout on Day 8, plates were fixed and stained via immunofluorescence to visualize parasite forms (hypnozoites and schizonts) and hepatocyte nuclei, and images were acquired using an Operetta CLS high-content imaging system (PerkinElmer). Host hepatocyte viability was measured in parallel to determine compound toxicity. Parasite forms were automatically quantified using Harmony 4.9 software, and percent inhibition and toxicity were calculated relative to in-plate DMSO vehicle controls. IC50 and CC50 (half-maximal cytotoxic concentrations) were determined by fitting dose-response data to a four-parameter logistic (variable slope) model using a custom Python script incorporating a grid search algorithm.

[2] = in vivo pharmacokinetics, single oral dose; design: species or system ICR-CD1 mice; conditions: 40 mg/kg oral
Description: PK studies were conducted using well-established methods[21],[31],[50]. Four to five weeks old male and female outbred ICR-CD1 mice (Charles River Laboratories. Inc. Raleigh, NC) weighing 23–35 g were used for PK studies. Animals were assigned unique study numbers via ear tags and cage cards and were randomly assigned to treatment or control groups (n = 3 per group) using a weigh-stratified randomization procedure. All animals were quarantined and acclimatized for 7 days prior to study initiation and were housed in a 12:12 light/dark cycle with food and water provided ad libitum. […] At each time point, a terminal whole blood sample was collected by cardiac puncture using heparinized syringes (Heparin, Hospira, Lake Forest, IL), while mice were under anesthesia in accordance with the approved IACUC protocol. Following the separation of appropriate aliquots, plasma was obtained from the whole blood via centrifugation at 16,200 rpm for 10 min at 4 °C. Mice were humanely euthanized as described in the protocol, after which the liver samples were also collected and weighed at each experimental time point. All tissue samples were immediately preserved on dry ice and later stored at −80 °C until analytical work was performed. Drug concentrations were determined for each sample taken from animals dosed with the test compound. PK parameters such as time to maximum plasma concentration (Tmax), maximum plasma concentration (Cmax), the apparent elimination half-life (t1/2), area under the curve (AUC), etc., were obtained using noncompartmental analysis via the Phoenix WinNonlin software package (version 6.4; Pharsight Corp., Mountain View, CA).

[3] = test system: fresh P. falciparum isolates; assay: Ex vivo 72-h growth inhibition assay with SYBR Green detection; assay type: cell-based, Plasmodium falciparum
Description: Isolates were collected from patients with uncomplicated falciparum malaria in Bobo-Dioulasso, Burkina Faso and Tororo, Uganda. For parasite culture, parasitemia was identified with Giemsa-stained thin films using a light microscope. […] Isolates were stored at 4 °C and assayed within 24 h of collection. […] Study compounds were dissolved in DMSO as 10 mM stocks and stored at -20 °C. Drugs were serially diluted, including drug-free and parasite-free control wells, with concentrations optimized to capture full dose-response curves. Cultures were diluted with uninfected O^+ erythrocytes to achieve 0.2% parasitemia and 2% hematocrit. After 72 h, wells were resuspended, and culture from each well was transferred to 96-well plates containing SYBR Green lysis buffer and mixed. Plates were incubated for 1 h in the dark at room temperature, and fluorescence was measured with a plate reader (485 nm excitation and 530 nm emission).

[4] = test system: blood-stage P. yoelii; assay: 4-day suppression murine model, oral; assay type: in vivo, P. yoelii in CF1 mice
Text: Animals were housed at the VAPORHCS in Thoren Maxi-Miser microisolator cages (78 sq. in. floor space) with a maximum density of five females or four males per cage. Cages were maintained on a 12-h light/dark cycle and provided with autoclaved nesting materials (nestlets) for environmental enrichment. All mice had ad libitum access to food and water. Four- to five-week-old female and male outbred CF1 mice (Charles River Laboratories, Raleigh, NC, USA) were randomly assigned to treatment and control groups using a simple randomization procedure (e.g., computer-generated random numbers) to ensure balanced distribution of baseline body weights and starting parasitemia levels across all cohorts. Groups of four mice (n = 4, mean body weight of each group was ~30 g) were infected intravenously with 3.5 × 10^4 P. yoelii (Kenya strain, MRA-428) from a donor animal. Drug administration commenced the day after the animals were inoculated (Day 1). The test drug or the drug combination was dissolved in PEG-400 and administered by oral gavage once daily for 4 successive days in the 4-day suppression model, but only once on Day 1 in the single-dose cure model. Blood was collected via the tail vein with the aid of a syringe needle on Day 5 and then at weekly intervals through Day 28. Blood films were Giemsa-stained and examined microscopically to determine the level of parasitemia. All mice were observed daily to assess clinical signs. Animals with observable parasitemia following the experiments were euthanized; animals cleared of parasitemia from their bloodstream were observed daily with assessment of parasitemia performed weekly until Day 28, at which point, the animal(s) were scored as cured of the infection and then humanely euthanized. All treated mice with a negative smear on Day 28 were considered cured (100% protection). […]

[5] = as stated in response to reviewers

## O=C1C(O)=C([C@H]2CC[C@H](c3ccc(Cl)cc3)CC2)C(=O)c2ccccc21 [ATV, atovaquone]
[1]
  CC50 at 4 days: 3960 nM

## O=c1c2ccc(Oc3ccc(OC(F)(F)F)cc3)cc2[nH]c2cc(Cl)cc(F)c12 [T111]
[2]; female, liver
  AUCinf: 23,495 ng.h/mL
  AUClast: 23,384 ng.h/mL
  Cmax: 1503 ng/mL
  Tmax: 8.0 h
[2]; female, plasma
  AUCinf: 185 ng·h/mL
  AUClast: 169 ng·h/mL
  Cmax: 11.3 ng/mL
  Tmax: 4.0 h
[2]; male, liver
  AUCinf: 26,044 ng.h/mL
  AUClast: 25,969 ng.h/mL
  Cmax: 1704 ng/mL
  Tmax: 1.0 h
[2]; male, plasma
  AUCinf: 180 ng·h/mL
  AUClast: 156 ng·h/mL
  Cmax: 6.8 ng/mL
  Tmax: 4.0 h
[3]; Burkina Faso isolates, n = 78, read-out: IC50 range
  IC50: 0.0013 to 0.49 nM
[3]; Burkina Faso isolates, n = 78, read-out: median IC50
  IC50: 0.062 nM
[3]; Uganda isolates, n = 81, read-out: IC50 range
  IC50: 0.0038 to 0.66 nM
[3]; Uganda isolates, n = 81, read-out: median IC50
  IC50: 0.049 nM
[4]; [5]
  ED50: 0.27 mg/kg/day
  ED90: 0.39 mg/kg/day
[4]; female mice, oral
  ED50: 0.35 mg/kg/day
  ED90: 0.50 mg/kg/day
[4]; four consecutive days, oral
  curative dose: 10 mg/kg/day
[4]; male mice, oral
  ED50: 0.33 mg/kg/day
  ED90: 0.46 mg/kg/day
